Laboratory results from patent US20230414565A1, “COMPOSITIONS AND METHODS FOR TREATING HEMATOLOGICAL MALIGNANCIES” (Magenta Therapeutics, Inc., priority 2022, published 2023).
Like-named read-outs stand apart in the source and are kept apart here.

Key:
[1] = test system: graft cell subsets (T cells, B cells, NK cells, TNC); settings: cited from earlier work
CD34+ cells [2] = settings: historical plerixafor alone data, Devine et al., Blood 2008; cited from earlier work
CD34+ cells [3] = assay: Phase 1 clinical trial: mobilization of CD34+ cells into peripheral blood, multicolor flow cytometry
CD34+CD90+CD45RA− cells [4] = assay: Phase 1 clinical trial: mobilization of CD34+CD90+CD45RA− cells into peripheral blood, multicolor flow cytometry
Description: (§1) The dose of MGTA-145 was one of 0.0075 mg/kg, 0.015 mg/kg, 0.03 mg/kg, 0.075 mg/kg, 0.15 mg/kg, or 0.3 mg/kg. […] The dose of MGTA-145 was one of 0.015 mg/kg, 0.03 mg/kg, 0.075 mg/kg, or 0.15 mg/kg. […] The dose of MGTA-145 was one of 0.03 mg/kg or 0.075 mg/kg.
(§2) Mobilization of white blood cells (WBCs), neutrophils, lymphocytes, basophils, and eosinophils was quantified by automated hematology analyzer.

[5] = test system: hematopoietic stem and progenitor cell mobilization; settings: U.S. Pat. Nos. 6,080,398 and 6,447,766; cited from earlier work
MMP-9 = assay: Phase 1 clinical trial: plasma MMP-9 and TIMP-1, sandwich immunoassay; assay type: in vivo, human; settings: MGTA-145 monotherapy, all six doses
Description: (§3) Additionally, blood samples were analyzed by multicolor flow cytometry to quantify changes in expression of neutrophil activation markers such as L-selectin, CD11b, CD18, and CD66. Additionally, matrix metalloproteinase 9 (MMP-9), a neutrophil protease believed to mediate mobilization in response to MGTA-145, as well as its cognate inhibitor, TIMP-1, were quantified in plasma samples collected at the same time points by sandwich immunoassay.

[6] = test system: neutrophil activation markers (L-selectin, CD11b, CD18, CD66); assay: Phase 1 clinical trial: neutrophil activation markers, multicolor flow cytometry; assay type: in vivo, human; settings: MGTA-145 monotherapy
Description: as §3

CXCR2 = biological target: T1, CXCR2 (Homo sapiens, UniProt P25025); assay: Phase 1 clinical trial: CXCR2 expression on peripheral blood neutrophils; assay type: in vivo
T1 construct: endogenous in cells; host or cells: peripheral blood neutrophils of trial subjects
T1 sequence (P25025 1-360): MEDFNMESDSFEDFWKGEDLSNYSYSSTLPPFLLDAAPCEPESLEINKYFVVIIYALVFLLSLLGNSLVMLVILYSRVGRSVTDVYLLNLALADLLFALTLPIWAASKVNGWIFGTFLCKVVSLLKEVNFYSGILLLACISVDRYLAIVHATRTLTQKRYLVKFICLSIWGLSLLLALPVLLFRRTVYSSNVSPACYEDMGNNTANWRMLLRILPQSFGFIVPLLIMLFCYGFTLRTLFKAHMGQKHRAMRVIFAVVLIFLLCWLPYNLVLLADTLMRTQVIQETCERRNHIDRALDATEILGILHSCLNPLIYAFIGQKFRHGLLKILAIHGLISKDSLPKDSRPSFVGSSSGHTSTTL

CD45.2 mice = assay: Primary and secondary transplantation of mobilized mouse cells at limit dilution (CRU); assay type: in vivo; settings: FIG. 25, right panel; versus the other cohorts
Excerpt: Mice (CD45.1) were mobilized according to the scheme shown in FIG. 24 and mobilized cells transplanted into CD45.2 mice at limit dilution.

[7] = Phase 1 clinical trial: treatment emergent adverse events; settings: Part A; MGTA-145 0.0075-0.3 mg/kg, n = 24
CD34+ cells [8] = assay: Phase 1 Part D: apheresis collection yield of CD34+ cells
Description: as §1
(§4) The table documents the body weight of each subject, the total CD34+ cells that were obtained through the apheresis procedure, the normalized CD34+ cells/kg of body weight, and the percentage of CD34+ cells that were CD90+CD45RA−.

CD34+CD90+CD45RA− cells [9] = assay: Phase 1 Part D: apheresis collection of CD34+CD90+CD45RA− cells; settings: for CD90+/kg (CD34+CD90+CD45RA− cells), mean / CD90+/kg (CD34+CD90+CD45RA− cells), median: 2 h stagger after plerixafor; for CD90+ (% of CD34+): 2 h stagger after plerixafor (Table 13)
Description: as §1, §4

neutrophils = assay: Phase 1 clinical trial: mobilization of neutrophils, automated hematology analyzer; settings: MGTA-145 monotherapy
Description: as §1, §2

white blood cells (WBCs) = assay: Phase 1 clinical trial: mobilization of white blood cells, automated hematology analyzer; settings: MGTA-145 monotherapy
Description: as §1, §2

[10] = test system: neutrophil activation markers (L-selectin, CD11b, CD18, CD66); settings: 5 days of G-CSF; Falanga et al., Blood 1999; cited from earlier work
[11] = G-CSF; Pulsiper et al. (2009) Blood; cited from earlier work
[12] = Chen et al., 2019, 2 LP for plerixafor (N = 50+), 1 LP for G-CSF (N = 112+)
[13] = Devine et al, 2008, yield of 1 LP, plerixafor N = 24, G-CSF N = 8
[14] = Part B, pooled placebo + plerixafor on Day 1
[15] = Part C, pooled placebo + plerixafor on Day 1
[16] = Pooled B + C, pooled placebo + plerixafor on Day 1
[17] = plerixafor alone, MGTA-145 dose 0
[18] = 0.03 mg/kg MGTA-145 and plerixafor (staggered 2 hour)
[19] = higher doses (0.075, 0.15, 0.3 mg/kg), 2 hours post administration
[20] = lower doses (0.0075, 0.015, 0.03 mg/kg), between 1 and 2 hours post administration
[21] = MGTA-145 monotherapy 0.03 mg/kg
[22] = MGTA-145 monotherapy, the other doses
[23] = Part A, MGTA-145 on Day 1, 0.03 mg/kg
[24] = Part A, MGTA-145 on Day 1, 0.3 mg/kg
[25] = G-CSF, N = 78 healthy donors, Chaidos et al, Blood 2012

c1cc(CN2CCCNCCNCCCNCC2)ccc1CN1CCCNCCNCCCNCC1 [plerixafor, 1,1′-[1,4-phenylenebis(methylene)]-bis-1,4,8,11-tetra-azacyclotetradecane]
Graft CD3+, median [1, 12]: 6e+08 kg⁻¹ | Graft CD4+, median [1, 12]: 3.6e+08 kg⁻¹ | Graft CD8+, median [1, 12]: 2.2e+08 kg⁻¹ | Graft CD19+, median [1, 12]: 1.5e+08 kg⁻¹ | Graft CD34+, median [1, 12]: 4.7e+06 kg⁻¹ | Graft CD56+, median [1, 12]: 4e+07 kg⁻¹ | Graft CD3+, median [1, 13]: 4.6e+08 kg⁻¹ | Graft CD4+, median [1, 13]: 3.2e+08 kg⁻¹ | Graft CD8+, median [1, 13]: 1.3e+08 kg⁻¹ | Graft CD34+, median [1, 13]: 2.9e+06 kg⁻¹ | Graft CD56+, median [1, 13]: 3e+07 kg⁻¹ | Graft CD19+, median ([1]; Devine et al, 2008, yield of 1 LP, plerixafor N = 24): 1e+08 kg⁻¹ | Patients with peak CD34+ ≥20 cells/μL (CD34+ cells [2]): 28% | Patients with peak CD34+ ≥40 cells/μL (CD34+ cells [2]): 4% | Peak CD34+ (#/μL) Median (CD34+ cells [3]; Part B, plerixafor alone, MGTA-145 dose 0): 26 #/μL | Peak CD34+ (#/μL) Median (CD34+ cells [3]; [14]): 26 #/μL | Percent ≥20/μL peak CD34+ (CD34+ cells [3]; [14]): 64% | Peak CD34+ (#/μL) Median (CD34+ cells [3]; Part C first day, plerixafor alone, MGTA-145 dose 0): 18 #/μL | Peak CD34+ (#/μL) Median (CD34+ cells [3]; [15]): 18 #/μL | Percent ≥20/μL peak CD34+ (CD34+ cells [3]; [15]): 0% | Percent ≥20/μL peak CD34+ (CD34+ cells [3]; Part C, pooled placebo + plerixafor on Day 2): 50% | Peak CD34+ (#/μL) Median (CD34+ cells [3]; Pooled B + C, plerixafor alone, MGTA-145 dose 0): 20 #/μL | Peak CD34+ (#/μL) Median (CD34+ cells [3]; [16]): 23 #/μL | Percent ≥20/μL peak CD34+ (CD34+ cells [3]; [16]): 56% | Tmax (time of the peak CD34+ level) Median (CD34+ cells [3]; plerixafor alone): 8 h | Peak CD34+/μL (FC vs. baseline) Median (CD34+ cells [3]; [17]): 15 | Peak CD34+/μL Median (CD34+ cells [3]; [17]): 20 µL⁻¹ | Peak CD34+CD90+CD45RA− mobilization (median) (CD34+CD90+CD45RA− cells [4]; plerixafor alone): 8 cells/μL

Gro-β T N65D: Gro-β T variant with aspartic acid in place of asparagine at position 65
Potency of hematopoietic stem and progenitor cell mobilization [5]: potency that is substantially greater than that of Gro-β T

MGTA-145: CXCR2 agonist; truncated Gro-β with deletion of the first four N-terminal amino acids (SEQ ID NO: 2)
Molar ratio MMP-9:TIMP-1 (MMP-9): rapid increase 30 minutes post-administration | Plasma levels of MMP-9 (MMP-9): increased sharply within 30 minutes post-administration | Change relative to baseline of neutrophil activation marker CD66 ([6]; all doses except the highest (0.3 mg/kg)): < 2 fold | Change relative to baseline of neutrophil activation marker L-selectin ([6]; all six doses): < 2 fold | Change relative to baseline of neutrophil activation markers CD11b and CD18 ([6]; all six doses): < 2 fold | CXCR2 expression recovery prior to the second dose (CXCR2; MGTA-145 0.07 mg/kg, staggered dosing, two consecutive days): ~80 % of baseline | CXCR2 on peripheral neutrophils (CXCR2; MGTA-145 monotherapy): rapid downregulation of its target receptor, CXCR2, on peripheral neutrophils, followed by recovery over 24 hours | Engraftment rates, secondary transplantation (CD45.2 mice): vastly improved engraftment rates | Potency of hematopoietic stem and progenitor cell mobilization [5]: potency superior to that of Gro-β by multiple orders of magnitude | Back pain/Musculoskeletal pain [7]: 19 n (%) | Subjects with any drug related TEAE [7]: 19 n (%) | CD34+/kg, median (CD34+ cells [8]; [18]): 4.3 ×10^6 cells | Total CD34+ Yield, median (CD34+ cells [8]; [18]): 321 (239-500) ×10^6 cells | CD34+/kg, mean (CD34+ cells [8]; MGTA-145 0.03 mg/kg, 2 h stagger after plerixafor): 4.1 ×10^6 | CD90+/kg (CD34+CD90+CD45RA− cells), mean (CD34+CD90+CD45RA− cells [9]; MGTA-145 0.03 mg/kg): 1.3 ×10^6 | CD90+/kg (CD34+CD90+CD45RA− cells), median (CD34+CD90+CD45RA− cells [9]; MGTA-145 0.03 mg/kg): 1.5 ×10^6 | CD90+ (% of CD34+) (CD34+CD90+CD45RA− cells [9]; MGTA-145 0.03 mg/kg, 0.03 mg/kg): 31% | CD90+/kg (CD34+CD90+CD45RA− cells), mean (CD34+CD90+CD45RA− cells [9]; MGTA-145 […]): 1.4 ×10^6 | CD90+/kg (CD34+CD90+CD45RA− cells), median (CD34+CD90+CD45RA− cells [9]; MGTA-145 […]): 1.2 ×10^6 | CD90+ (% of CD34+) (CD34+CD90+CD45RA− cells [9]; MGTA-145 […], […]): 37% | Initial plateau of neutrophil mobilization (neutrophils; [19]): 5-8 ×10^3 cells/μL | Peak mobilization of neutrophils (neutrophils; [20]): 13-15 ×10^3 cells/μL | Initial plateau of WBC mobilization (white blood cells (WBCs); [19]): 6-10 ×10^3 cells/μL | Peak mobilization of WBCs (white blood cells (WBCs); [20]): 15-17 ×10^3 cells/μL | Fold increase of CD34+ cells (CD34+ cells [3]; [21]): 7 fold | Peak concentration of CD34+ cells (CD34+ cells [3]; [21]): ~10 cells/μL | Time of peak CD34+ mobilization post administration (CD34+ cells [3]; MGTA-145 monotherapy, single dose, across the six doses 0.0075-0.3 mg/kg): about 30 minutes | Fold increase of CD34+ cells (CD34+ cells [3]; [22]): 2-3 fold | Peak concentration of CD34+ cells (CD34+ cells [3]; MGTA-145 monotherapy, the other doses (0.0075, 0.015, 0.075, 0.15, 0.3 mg/kg)): ~5 cells/μL | Peak CD34+ (#/μL) Median (CD34+ cells [3]; [23]): 12 #/μL | Percent ≥20/μL peak CD34+ (CD34+ cells [3]; [23]): 0% | Peak CD34+ (#/μL) Median (CD34+ cells [3]; [24]): 3 #/μL | Percent ≥20/μL peak CD34+ (CD34+ cells [3]; [24]): 0% | Fold increase of CD34+CD90+CD45RA− cells (CD34+CD90+CD45RA− cells [4]; [21]): ~8.3 fold | Peak concentration of CD34+CD90+CD45RA− cells (CD34+CD90+CD45RA− cells [4]; [21]): ~3 cells/μL | Time of peak CD34+CD90+CD45RA− mobilization post administration (CD34+CD90+CD45RA− cells [4]; MGTA-145 monotherapy, six doses): 30 min | Fold increase of CD34+CD90+CD45RA− cells (CD34+CD90+CD45RA− cells [4]; [22]): 2-3.5 fold | Peak concentration of CD34+CD90+CD45RA− cells (CD34+CD90+CD45RA− cells [4]; [22]): 1-1.6 cells/μL

B1: G-CSF: standard mobilization agent, five days of Filgrastim (G-CSF) (protein, UniProt P09919 31-207, looked up)
Granulocyte …: TPLGPASSLPQSFLLKCLEQVRKIQGDGAALQEKLVSECATYKLCHPEELVLLGHSLGIPWAPLSSCPSQALQLAGCLSQLHSGLFLYQGLLQALEGISPELGPTLDTLQLDVADFATTIWQQMEELGMAPALQPTQGAMPAFASAFQRRAGGVLVASHLQSFLEVSYRVLRHLAQP
modifications: filgrastim
Increase in neutrophil activation markers [10]: ~2.7 fold | Tolerability [11]: Majority with bone pain, | Graft CD3+, median [1, 12]: 2.5e+08 kg⁻¹ | Graft CD4+, median [1, 12]: 1.5e+08 kg⁻¹ | Graft CD8+, median [1, 12]: 7e+07 kg⁻¹ | Graft CD19+, median [1, 12]: 5e+07 kg⁻¹ | Graft CD34+, median [1, 12]: 4.2e+06 kg⁻¹ | Graft CD56+, median [1, 12]: 1e+07 kg⁻¹ | Graft CD3+, median [1, 13]: 1.3e+08 kg⁻¹ | Graft CD4+, median [1, 13]: 1.1e+08 kg⁻¹ | Graft CD8+, median [1, 13]: 4e+07 kg⁻¹ | Graft CD34+, median [1, 13]: 4.2e+06 kg⁻¹ | Graft CD56+, median [1, 13]: 2e+07 kg⁻¹ | TNC/kg donor weight, median (range) ([1]; G-CSF, N = 40 healthy donors, Singhal et al, BMT 2000): 7.2 (3.2-14.0) ×10^8 cells | Frequency of CD3+ T cells in graft, median [1, 25]: 45.3 % of CD45+ | Frequency of CD4+ T cells in graft, median [1, 25]: 29.8 % of CD45+ | Frequency of CD8+ T cells in graft, median [1, 25]: 11.8 % of CD45+ | Frequency of CD19+ B cells in graft, median [1, 25]: 10.5 % of CD45+ | Frequency of CD56+ NK cells in graft, median [1, 25]: 3.2 % of CD45+ | Frequency of Tregs in graft, median [1, 25]: 3.5 % of CD4+ T cells | Frequency of iNKT cells in graft, median [1, 25]: 0.04 % of CD3+
